9 compounds from US20040038855A1 (priority 1999, published 2004) can be followed below.

Counter-ions that a name gives are not always drawn. Like-named read-outs stand apart in the source and are kept apart here. Some results are limits rather than exact numbers.

The target in one assay is T1, human GALR3 receptor (Homo sapiens, UniProt O60755).
T1 construct: expressed in transfected cells
T1 sequence (O60755 1-368): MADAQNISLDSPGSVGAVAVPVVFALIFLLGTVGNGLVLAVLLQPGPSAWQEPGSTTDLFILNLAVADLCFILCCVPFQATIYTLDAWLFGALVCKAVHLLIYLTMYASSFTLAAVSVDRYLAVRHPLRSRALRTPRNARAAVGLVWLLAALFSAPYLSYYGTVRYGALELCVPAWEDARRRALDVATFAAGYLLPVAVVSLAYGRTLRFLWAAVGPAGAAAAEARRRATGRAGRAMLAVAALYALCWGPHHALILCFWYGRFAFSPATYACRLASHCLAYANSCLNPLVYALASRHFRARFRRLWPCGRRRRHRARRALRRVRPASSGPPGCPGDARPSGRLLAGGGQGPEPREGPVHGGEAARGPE
Briefly: Binding affinity at the human GALR3 receptor.

For the next assay, the target named is human MCH1 receptor (Homo sapiens, UniProt Q99705). Briefly: Competition binding, membrane preparations of A293 cells expressing the human MCH1 receptor, [3H] Compound 10 as radioligand. The arrangement: expressed in transfected cells. The protocol: TRITIATED METHYL (4S)-3-{[(3-{4-[3-(ACETYLAMINO)PHENYL]-1-[…]}PROPYL)AMINO]CARBONYL}-4-(3,4-DIFLUOROPHENYL)-6-(METHOXYMETHYL)-2-OXO-1,2,3,4-TETRAHYDRO-5-PYRIMIDINECARBOXYLATE ([^3H] COMPOUND 10): This radiochemical synthesis was carried out by Amersham Pharmacia Biotech, Cardiff, Wales. A methanolic solution of methyl (4S)-3-({[3-(4-[3-(acetylamino)phenyl]-3,6-dihydro-1(2H)pyridinyl)propyl]amino}carbonyl)-4-(3,4-difluorophenyl)-6-(methoxymethyl)-2-oxo-1,2,3,4-tetrahydro-5-pyrimidinecarboxylate was exposed to tritium gas at 1 atmosphere pressure in the presence of 5% palladium on carbon with stirring overnight to give the tritiated methyl (4S)-3-{[(3-{4-[3-(acetylamino)phenyl]-1-piperidinyl}propyl)amino]carbonyl}-4-(3,4-difluorophenyl)-6-(methoxymethyl)-2-oxo-1,2,3,4-tetrahydro-5-pyrimidinecarboxylate ((+)-isomer) After purification by reverse phase HPLC (Hypersil ODS, 4.6×100 mm, methanol:H2O:Et3N 10:90:1 to 100:0:1 in 15 min at 1.0 mL/min, with radiochemical and UV detection), this product was used as a radioligand in the MCH1 binding assays. The same procedure was carried out with H2 gas in place of ^3H2 to afford the non-radioactive version of Compound 10.
human MCH1 receptor, sequence (Q99705 whole entry): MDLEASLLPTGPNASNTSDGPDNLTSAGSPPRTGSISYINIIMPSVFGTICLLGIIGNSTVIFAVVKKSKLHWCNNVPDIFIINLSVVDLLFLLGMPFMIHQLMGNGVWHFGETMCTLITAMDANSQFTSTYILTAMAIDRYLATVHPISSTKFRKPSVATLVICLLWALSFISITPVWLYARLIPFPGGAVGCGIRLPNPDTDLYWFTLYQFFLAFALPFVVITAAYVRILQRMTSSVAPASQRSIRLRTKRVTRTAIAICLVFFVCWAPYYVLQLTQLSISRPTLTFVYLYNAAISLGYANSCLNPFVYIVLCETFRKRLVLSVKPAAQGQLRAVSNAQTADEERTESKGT

In another assay the target is T2, human GALR1 receptor (Homo sapiens, UniProt P47211).
T2 construct: expressed in transfected cells
T2 sequence (P47211 1-349): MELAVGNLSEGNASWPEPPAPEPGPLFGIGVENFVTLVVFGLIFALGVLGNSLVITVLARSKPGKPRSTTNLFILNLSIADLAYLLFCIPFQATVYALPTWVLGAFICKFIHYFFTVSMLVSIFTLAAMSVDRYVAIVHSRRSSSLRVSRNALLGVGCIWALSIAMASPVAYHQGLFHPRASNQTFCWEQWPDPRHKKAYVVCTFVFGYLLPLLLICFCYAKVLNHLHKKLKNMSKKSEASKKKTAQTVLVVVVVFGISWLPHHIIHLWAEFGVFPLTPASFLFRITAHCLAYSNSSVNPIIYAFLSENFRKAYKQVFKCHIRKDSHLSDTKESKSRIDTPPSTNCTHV
Kind of assay: Binding affinity at the human GALR1 receptor.

The target of the next assay is T3, human NPY5 receptor (Homo sapiens, UniProt Q15761).
T3 construct: expressed in transfected cells
T3 sequence (Q15761 1-445): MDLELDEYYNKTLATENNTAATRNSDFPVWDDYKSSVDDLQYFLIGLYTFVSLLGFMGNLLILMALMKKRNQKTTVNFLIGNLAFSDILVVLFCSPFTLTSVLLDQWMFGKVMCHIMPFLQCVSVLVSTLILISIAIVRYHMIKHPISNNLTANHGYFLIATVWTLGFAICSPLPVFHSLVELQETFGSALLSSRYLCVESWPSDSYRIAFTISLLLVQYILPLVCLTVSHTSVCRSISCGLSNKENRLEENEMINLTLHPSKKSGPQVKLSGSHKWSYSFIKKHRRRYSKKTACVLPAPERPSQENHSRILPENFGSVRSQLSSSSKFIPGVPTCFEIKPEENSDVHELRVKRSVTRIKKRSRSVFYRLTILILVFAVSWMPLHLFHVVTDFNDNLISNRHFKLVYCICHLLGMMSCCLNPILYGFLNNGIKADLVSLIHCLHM
Kind of assay: Binding affinity at the human NPY5 receptor. The text has this:
The design of such compounds can be optimized by determining their binding affinity at the recombinant MCH1, NPY1, NPY2, Gal1, Gal2, Gal3, and 5HT2C receptors. The methods to obtain the cDNA of the receptor, express said receptors in heterologous systems, and carry out assays to determine binding affinity are described in the following publications: human NPY1 (Larhammar et al., 1992), human NPY5 (U.S. Pat. No. 5,602,024, the disclosure of which is hereby incorporated by reference in its entirety into this application), human Gall (Habert-Ortoli et al., 1994), human Gal2 (Smith et al., 1997), human Gal3 (Smith et al., 1998), and rat 5HT2C (Julius et al., 1988). Additionally, the compounds would optimally not bind at the following receptors due to possible side effects: human H1 histamine and human H2 histamine receptors; human alpha-1A adrenergic, human alpha-1D adrenergic, human alpha-2A adrenergic, human alpha-2B adrenergic, and human alpha-2C adrenergic receptors; human dopamine D1, D2, D3, D4, and D5 receptors; the β-adrenoceptor; and the human 5HT1A, human 5HT1B, human 5HT1D, human 5HT1E, human 5HT1F, human 5HT2A, rat 5HT2C, human 5HT4, human 5HT6, and human 5HT7 receptors.

Setting [1] is: Table 3b, A293 cell membranes, [3H] Compound 10, read-out: hMCH1* Ki.

As usually defined, the Ki is a dissociation constant, usually derived from enzyme kinetics or from competition with a known ligand.

`COCC1=C(C(=O)OC)[C@H](c2ccc(F)c(F)c2)N(C(=O)NCCCN2CCC(c3cccc(NC(C)=O)c3)CC2)C(=O)N1` [Example 10, (+)-1,2,3,6-TETRAHYDRO-1-{N-[4-(3,-ACETAMIDO)-PHENYLPIPERIDIN-1-YL]PROPYL}CARBOXAMIDO-4-METHOXYMETHYL-6-(3,4-DIFLUORO-PHENYL)-2-OXOPYRIMIDINE-5-CARBOXYLIC ACID METHYL ESTER]: the inhibition constant Ki at human GALR3 receptor (Table 3a, read-out: hGALR3 Ki) was > 50 µM; at human GALR3 receptor (Table 3b, read-out: hGALR3 Ki) it was > 50 µM; at human MCH1 receptor (setting [1]), 0.08 nM; on human GALR1 receptor (Table 3a, read-out: hGALR1 Ki), > 50 µM; at human GALR1 receptor (Table 3b, read-out: hGALR1 Ki), > 50 µM; on human NPY5 receptor (Table 3a, read-out: hNPY5 Ki), > 50 µM. The inhibitory constant (Ki) at human NPY5 receptor (Table 3b, read-out: hNPY5 Ki) is > 50 µM.

Take `COCC1=C(C(=O)OC)C(c2ccc(F)c(F)c2)N(C(=O)NCCCN2CCC(c3cccc(NC(C)=O)c3)CC2)C(=O)N1` (single isomer, unassigned; (-)) [Example 1, (−)-1,2,3,6-TETRAHYDRO-1-{N-[4-(3,-ACETAMIDO)-PHENYLPIPERIDIN-1-YL]PROPYL}CARBOXAMIDO-4-METHOXYMETHYL-6-(3,4-DIFLUORO-PHENYL)-2-OXOPYRIMIDINE-5-CARBOXYLIC ACID METHYL ESTER]: the Ki is > 50 µM at human GALR3 receptor (Table 3a, read-out: hGALR3 Ki); > 50 µM at human GALR3 receptor (Table 3b, read-out: hGALR3 Ki); 40 nM at human MCH1 receptor (setting [1]); > 50 µM at human GALR1 receptor (Table 3a, read-out: hGALR1 Ki); > 50 µM at human GALR1 receptor (Table 3b, read-out: hGALR1 Ki); > 50 µM at human NPY5 receptor (Table 3a, read-out: hNPY5 Ki). Moreover, the inhibition constant Ki at human NPY5 receptor (Table 3b, read-out: hNPY5 Ki) was > 50 µM.

As for `COC(=O)C1=C(C)NC(=O)N(C(=O)NCCCN2CCC3(CC2)OCc2ccccc23)C1c1ccc2nonc2c1` (single isomer, unassigned) [Example 18, HYDROCHLORIDE], the Ki at human GALR3 receptor was > 50 µM; on human GALR3 receptor (read-out: hGALR3 Ki, Table 3b), > 50 µM; on human MCH1 receptor, 4 nM; on human GALR1 receptor, > 50 µM; at human GALR1 receptor (read-out: hGALR1 Ki, Table 3b) it was > 50 µM; on human NPY5 receptor, > 50 µM. Also, at human NPY5 receptor (read-out: hNPY5 Ki, Table 3b), the Ki was > 50 µM.

Turning to `CCCCN(CCCC)c1ccc(CNC[C@H]2CC[C@H](NC(=O)c3cccc4ccccc34)CC2)cc1` [Example 13, N1-[4-([4-(DIBUTYLAMINO)BENZYL]AMINOMETHYL)CYCLOHEXYL]-1-NAPHTH-AMIDE], the inhibitory constant (Ki) at human GALR3 receptor (Table 3a, read-out: hGALR3 Ki) was 5.98 µM; at human GALR3 receptor (Table 3b, read-out: hGALR3 Ki), 5.98 µM; on human MCH1 receptor (setting [1]) it was 171 nM; on human GALR1 receptor (Table 3a, read-out: hGALR1 Ki), 11.3 µM; on human GALR1 receptor (Table 3b, read-out: hGALR1 Ki), 11.3 µM; on human NPY5 receptor (Table 3a, read-out: hNPY5 Ki), > 50 µM. The Ki at human NPY5 receptor (Table 3b, read-out: hNPY5 Ki) was > 50 µM.

As for `CCCCN(CCCC)c1ccc(CN2CCC(CNC(=O)N3C(=O)NC(C)=C(C(=O)OC)C3c3ccc4nonc4c3)CC2)cc1` (stereo not shown) [Example 6], the Ki is 21.1 µM at human GALR3 receptor (Table 3a, read-out: hGALR3 Ki); 21.1 µM on human GALR3 receptor (Table 3b, read-out: hGALR3 Ki); 463 nM at human MCH1 receptor (setting [1]); 11.1 µM on human GALR1 receptor (Table 3a, read-out: hGALR1 Ki); 11.1 µM at human GALR1 receptor (Table 3b, read-out: hGALR1 Ki); 4.74 µM on human NPY5 receptor (Table 3a, read-out: hNPY5 Ki). The Ki on human NPY5 receptor (Table 3b, read-out: hNPY5 Ki) was 4.74 µM.

For `O=C(CCCN1CCC(O)(c2ccc(Cl)cc2)CC1)c1ccc(Cl)cc1` [Example 29], the inhibition constant (Ki) is > 50 µM on human GALR3 receptor; > 50 µM at human GALR3 receptor (read-out: hGALR3 Ki, Table 3b); 350 nM on human MCH1 receptor; > 50 µM at human GALR1 receptor; > 50 µM on human GALR1 receptor (read-out: hGALR1 Ki, Table 3b); 46.1 µM at human NPY5 receptor. Moreover, on human NPY5 receptor (read-out: hNPY5 Ki, Table 3b), the Ki stood at 46.1 µM.

Turning to `COC(=O)C1=C(C)NC(=O)N(C(=O)NCCCN2CCC3(CC2)OCc2ccccc23)C1c1ccc(F)c(F)c1` (stereo not shown) [Example 20, 4-(3,4-DIFLUORPHENYL)-6-METHYL-2-OXO-3-{[3-(4-SPIRO[ISOBENZOFURAN-1(3H),4′-PIPERIDINE]PROPYL}-1,2,3,4-TETRAHYDROPYRIMIDINE-5-CARBOXYLIC ACID METHYL ESTER], the Ki was > 50 µM at human GALR3 receptor; > 50 µM on human GALR3 receptor (read-out: hGALR3 Ki, Table 3b); 6 nM on human MCH1 receptor; 6 nM at human MCH1 receptor (read-out: hMCH1 Ki, Table 3e); 6 nM at human MCH1 receptor (read-out: hMCH1 Ki, Table 3d); > 50 µM at human GALR1 receptor. The inhibition constant (Ki) was > 50 µM at human GALR1 receptor (read-out: hGALR1 Ki, Table 3b); > 50 µM on human NPY5 receptor; > 50 µM at human NPY5 receptor (read-out: hNPY5 Ki, Table 3b).

For “2-(3,4-DIFLUOROPHENYL)4,5-DIHYDROIMIDAZOLE-1-CARBOXYLIC ACID {3-[4-PHENYL-4-(4-BROMO-5-METHYLTHIOPNEN-2-YL)]-PROPYL}-AMIDE [Example 19]”, the Ki on human GALR3 receptor (Table 3a, read-out: hGALR3 Ki) was > 50 µM; on human GALR3 receptor (Table 3b, read-out: hGALR3 Ki), > 50 µM; on human MCH1 receptor (setting [1]), 3 nM; at human MCH1 receptor (Table 3e, read-out: hMCH1 Ki), 3 nM; at human MCH1 receptor (Table 3d, read-out: hMCH1 Ki), 3 nM; on human GALR1 receptor (Table 3a, read-out: hGALR1 Ki), > 50 µM. Also, the Ki was > 50 µM on human GALR1 receptor (Table 3b, read-out: hGALR1 Ki); > 50 µM at human NPY5 receptor (Table 3a, read-out: hNPY5 Ki); > 50 µM on human NPY5 receptor (Table 3b, read-out: hNPY5 Ki).

As for `CCC1=C(C(=O)O)C(c2ccc(F)c(F)c2)N(C(=O)NCCCN2CCC3(CC2)OCc2ccccc23)C(=O)N1` (single isomer, unassigned; (+)) [Example 4, (+)-1,2,3,6-TETRAHYDRO-1-1N-[4-(BENZO-4′,5′(H)FURAN)PIPERIDIN-1-YL]PROPYL}-CARBOXAMIDO-4-ETHYL-6-(3,4-DIFLUOROPHENYL)-2-OXO-PYRIMIDINE-5 CARBOXYLIC ACID HYDROCHLORIDE], the Ki at human GALR3 receptor (Table 3a, read-out: hGALR3 Ki) was > 50 µM; on human GALR3 receptor (Table 3b, read-out: hGALR3 Ki), > 50 µM; on human MCH1 receptor (setting [1]) it was 131 nM; on human GALR1 receptor (Table 3a, read-out: hGALR1 Ki), > 50 µM; on human GALR1 receptor (Table 3b, read-out: hGALR1 Ki), > 50 µM; at human NPY5 receptor (Table 3a, read-out: hNPY5 Ki), > 50 µM. Also, the Ki on human NPY5 receptor (Table 3b, read-out: hNPY5 Ki) is > 50 µM.
